Our source for the IC50 values is patent US20090018134A1, “Compounds - 945” (AstraZeneca AB, priority 2007, published 2009).

The target in the test is T1, mTOR (Homo sapiens, UniProt P42345).
T1 construct: FLAG; made in house
Kind of test: In Vitro mTOR Kinase Assay (Echo), Test (a)(ii). The conditions noted are these: table of enzyme assay Test (a)(ii); read-out: Test (a)(ii) IC50. Type of test: biochemical. In outline: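 AlphaScreen read-out: biotinylated substrate phosphorylation was detected with anti-p70 S6K (T389) 1A5 antibody, Protein A acceptor and streptavidin donor beads after overnight dark incubation at room temperature. Enzyme was FLAG-mTOR 1362-2549 from stable HEK293 cells.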

T1 sequence (P42345 1362-2549): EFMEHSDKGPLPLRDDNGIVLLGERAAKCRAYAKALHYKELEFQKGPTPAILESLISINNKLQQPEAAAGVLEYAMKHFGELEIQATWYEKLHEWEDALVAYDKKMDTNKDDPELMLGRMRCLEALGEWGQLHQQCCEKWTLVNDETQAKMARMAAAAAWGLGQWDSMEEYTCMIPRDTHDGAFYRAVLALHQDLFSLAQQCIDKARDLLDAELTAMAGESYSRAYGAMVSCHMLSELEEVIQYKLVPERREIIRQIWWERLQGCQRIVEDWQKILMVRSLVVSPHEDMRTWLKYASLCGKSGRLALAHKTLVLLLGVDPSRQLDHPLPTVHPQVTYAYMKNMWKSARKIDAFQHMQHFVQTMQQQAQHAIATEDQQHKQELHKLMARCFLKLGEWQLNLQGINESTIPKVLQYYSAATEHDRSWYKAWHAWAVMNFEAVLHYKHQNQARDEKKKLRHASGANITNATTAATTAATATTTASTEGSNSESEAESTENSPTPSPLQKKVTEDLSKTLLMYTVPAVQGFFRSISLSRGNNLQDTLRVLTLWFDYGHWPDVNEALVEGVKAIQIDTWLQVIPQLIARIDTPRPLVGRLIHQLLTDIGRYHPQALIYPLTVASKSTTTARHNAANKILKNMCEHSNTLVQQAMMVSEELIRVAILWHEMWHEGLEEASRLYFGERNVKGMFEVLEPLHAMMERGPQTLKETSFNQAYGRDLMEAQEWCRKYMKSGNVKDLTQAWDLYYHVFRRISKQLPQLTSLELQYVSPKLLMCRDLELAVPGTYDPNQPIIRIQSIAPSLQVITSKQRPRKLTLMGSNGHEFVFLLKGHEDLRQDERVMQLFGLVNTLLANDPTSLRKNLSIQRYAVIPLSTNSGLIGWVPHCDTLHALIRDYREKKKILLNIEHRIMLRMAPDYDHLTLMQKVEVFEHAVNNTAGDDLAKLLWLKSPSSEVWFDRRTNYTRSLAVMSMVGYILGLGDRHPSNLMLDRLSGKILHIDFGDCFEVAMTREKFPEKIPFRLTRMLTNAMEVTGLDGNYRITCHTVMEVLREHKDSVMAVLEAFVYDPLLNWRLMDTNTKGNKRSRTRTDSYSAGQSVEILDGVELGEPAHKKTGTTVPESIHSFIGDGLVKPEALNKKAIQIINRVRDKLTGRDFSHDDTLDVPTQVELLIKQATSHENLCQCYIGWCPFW

As usually defined, the IC50 is the concentration that gives 50% inhibition. For `C[C@H]1COCCN1c1cc(C2(S(=O)(=O)C3CC3)CCNCC2)nc(-c2ccc(NC(=O)Nc3cnn(C)c3)cc2)n1` [Example 21c, 1-[4-[4-(4-cyclopropylsulfonylpiperidin-4-yl)-6-[(3S)-3-methylmorpholin-4-yl]pyrimidin-2-yl]phenyl]-3-(1-methylpyrazol-4-yl)urea], the IC50 was 23.4 nM. As to `C[C@H]1COCCN1c1cc(C2(S(=O)(=O)c3cc(F)cc(F)c3)CCN(Cc3ccccc3)CC2)nc(-c2ccc(NC(=O)NC3CC3)cc2)n1` [Example 22, 1-[4-[4-[1-Benzyl-4-(3,5-difluorophenyl)sulfonylpiperidin-4-yl]-6-[(3S)-3-methylmorpholin-4-yl]pyrimidin-2-yl]phenyl]-3-cyclopropylurea], the IC50 was 503 nM. To `CNC(=O)Nc1ccc(-c2nc(N3CCOC[C@@H]3C)cc(C3(S(C)(=O)=O)CCOCC3)n2)cc1` [Example 23a, 3-methyl-1-[4-[4-[(3S)-3-methylmorpholin-4-yl]-6-(4-methylsulfonyloxan-4-yl)pyrimidin-2-yl]phenyl]urea] belongs 4.59 nM; to `C[C@H]1COCCN1c1cc(C2(S(C)(=O)=O)CCOCC2)nc(-c2ccc(NC(=O)NCCN(C)C)cc2)n1` [Example 23b, 3-(2-dimethylaminoethyl)-1-[4-[4-[(3S)-3-methylmorpholin-4-yl]-6-(4-methylsulfonyloxan-4-yl)pyrimidin-2-yl]phenyl]urea], 197 nM. To `C[C@H]1COCCN1c1cc(C2(S(C)(=O)=O)CCOCC2)nc(-c2ccc(NC(=O)NCCO)cc2)n1` [Example 23c, 3-(2-hydroxyethyl)-1-[4-[4-[(3S)-3-methylmorpholin-4-yl]-6-(4-methylsulfonyloxan-4-yl)pyrimidin-2-yl]phenyl]urea] belongs 0.831 nM; to `C[C@H]1COCCN1c1cc(C2(S(C)(=O)=O)CCOCC2)nc(-c2ccc(NC(=O)Nc3cnn(C)c3)cc2)n1` [Example 23d, 1-[4-[4-[(3S)-3-methylmorpholin-4-yl]-6-(4-methylsulfonyloxan-4-yl)pyrimidin-2-yl]phenyl]-3-(1-methylpyrazol-4-yl)urea], 5.34 nM.

Turning to `C[C@H]1COCCN1c1cc(C2(S(=O)(=O)C3CC3)CCOCC2)nc(-c2ccc(NC(=O)NC3CC3)cc2)n1` [Example 23e, 3-cyclopropyl-1-[4-[4-(4-cyclopropylsulfonyloxan-4-yl)-6-[(3S)-3-methylmorpholin-4-yl]pyrimidin-2-yl]phenyl]urea], the IC50 came out at 8.76 nM. To `CNC(=O)Nc1ccc(-c2nc(N3CCOC[C@@H]3C)cc(C3(S(=O)(=O)C4CC4)CCOCC3)n2)cc1` [Example 23f, 1-[4-[4-(4-cyclopropylsulfonyloxan-4-yl)-6-[(3S)-3-methylmorpholin-4-yl]pyrimidin-2-yl]phenyl]-3-methylurea] belongs 19.9 nM; to `C[C@H]1COCCN1c1cc(C2(S(=O)(=O)C3CC3)CCOCC2)nc(-c2ccc(NC(=O)NCCN(C)C)cc2)n1` [Example 23g, 1-[4-[4-(4-cyclopropylsulfonyloxan-4-yl)-6-[(3S)-3-methylmorpholin-4-yl]pyrimidin-2-yl]phenyl]-3-(2-dimethylaminoethyl)urea], 1210 nM; to `C[C@H]1COCCN1c1cc(C2(S(=O)(=O)C3CC3)CCOCC2)nc(-c2ccc(NC(=O)NCCO)cc2)n1` [Example 23h, 1-[4-[4-(4-cyclopropylsulfonyloxan-4-yl)-6-[(3S)-3-methylmorpholin-4-yl]pyrimidin-2-yl]phenyl]-3-(2-hydroxyethyl)urea], 8.08 nM. For the compound `C[C@H]1COCCN1c1cc(C2(S(=O)(=O)C3CC3)CCOCC2)nc(-c2ccc(NC(=O)Nc3cnn(C)c3)cc2)n1` [Example 23i, 1-[4-[4-(4-cyclopropylsulfonyloxan-4-yl)-6-[(3S)-3-methylmorpholin-4-yl]pyrimidin-2-yl]phenyl]-3-(1-methylpyrazol-4-yl)urea], the half-maximal inhibitory concentration (IC50) was determined as 25.4 nM. For `CNC(=O)Nc1ccc(-c2nc(N3CCOC[C@@H]3C)cc(C3(S(=O)(=O)c4ccc(Cl)cc4)CCOCC3)n2)cc1` [Example 23j, 1-[4-[4-[4-(4-chlorophenyl)sulfonyloxan-4-yl]-6-[(3S)-3-methylmorpholin-4-yl]pyrimidin-2-yl]phenyl]-3-methylurea], the half-inhibitory concentration (IC50) amounted to 31.4 nM. Turning to `C[C@H]1COCCN1c1cc(C2(S(=O)(=O)c3ccc(Cl)cc3)CCOCC2)nc(-c2ccc(NC(=O)NCCN(C)C)cc2)n1` [Example 23k, 1-[4-[4-[4-(4-chlorophenyl)sulfonyloxan-4-yl]-6-[(3S)-3-methylmorpholin-4-yl]pyrimidin-2-yl]phenyl]-3-(2-dimethylaminoethyl)urea], the IC50 turned out to be 1140 nM. To `C[C@H]1COCCN1c1cc(C2(S(=O)(=O)c3ccc(Cl)cc3)CCOCC2)nc(-c2ccc(NC(=O)NCCO)cc2)n1` [Example 23l, 1-[4-[4-[4-(4-chlorophenyl)sulfonyloxan-4-yl]-6-[(3S)-3-methylmorpholin-4-yl]pyrimidin-2-yl]phenyl]-3-(2-hydroxyethyl)urea] belongs 8.88 nM; to `C[C@H]1COCCN1c1cc(C2(S(=O)(=O)c3ccc(Cl)cc3)CCOCC2)nc(-c2ccc(NC(=O)Nc3cnn(C)c3)cc2)n1` [Example 23m, 1-[4-[4-[4-(4-chlorophenyl)sulfonyloxan-4-yl]-6-[(3S)-3-methylmorpholin-4-yl]pyrimidin-2-yl]phenyl]-3-(1-methylpyrazol-4-yl)urea], 57.7 nM. As to `C[C@H]1COCCN1c1cc(C2(S(=O)(=O)c3ccc(Cl)cc3)CCOCC2)nc(-c2ccc(NC(=O)NC3CC3)cc2)n1` [Example 24, 1-[4-[4-[4-(4-Chlorophenyl)sulfonyloxan-4-yl]-6-[(3S)-3-methylmorpholin-4-yl]pyrimidin-2-yl]phenyl]-3-cyclopropylurea], the IC50 is 5.17 nM. For the compound `Cc1csc(S(=O)(=O)C2(c3cc(N4CCOC[C@@H]4C)nc(-c4ccc(NC(=O)NC5CC5)cc4)n3)CC2)n1` [Example 25, 3-Cyclopropyl-1-[4-[4-[(3S)-3-methylmorpholin-4-yl]-6-[1-[(4-methyl-1,3-thiazol-2-yl)sulfonyl]cyclopropyl]pyrimidin-2-yl]phenyl]urea], the IC50 is 1.55 nM. `Cc1csc(S(=O)(=O)C2(c3cc(N4CCOC[C@@H]4C)nc(-c4ccc(NC(=O)NC5CCC5)cc4)n3)CC2)n1` [Example 25a, 3-cyclobutyl-1-[4-[4-[(3S)-3-methylmorpholin-4-yl]-6-[1-[(4-methyl-1,3-thiazol-2-yl)sulfonyl]cyclopropyl]pyrimidin-2-yl]phenyl]urea]: the IC50 was 2.24 nM. To `Cc1csc(S(=O)(=O)C2(c3cc(N4CCOC[C@@H]4C)nc(-c4ccc(NC(=O)Nc5ccccn5)cc4)n3)CC2)n1` [Example 25b, 1-[4-[4-[(3S)-3-methylmoprholin-4-yl]-6-[1-[(4-methyl-1,3-thiazol-2-yl)sulfonyl]cyclopropyl]pyrimidin-2-yl]phenyl]-3-pyridin-2-ylurea] belongs 0.817 nM; to `Cc1csc(S(=O)(=O)C2(c3cc(N4CCOC[C@@H]4C)nc(-c4ccc(NC(=O)NCC(C)C)cc4)n3)CC2)n1` [Example 25c, 1-[4-[4-[(3S)-3-methylmorpholin-4-yl]-6-[1-[(4-methyl-1,3-thiazol-2-yl)sulfonyl]cyclopropyl]pyrimidin-2-yl]phenyl]-3-(2-methylpropyl)urea], 3.85 nM.
